“And” between values parts separate entries of the source, which are not always exact repeats. Equal values may be shown once. Numbers after ± are expanded uncertainties.
Experiment: mn = molality of the nth substance listed, in mol/kg
Settings: 101 kPa, Liquid; for viscosity: Capillary tube (Ostwald / Ubbelohde) method; for speed of sound: Frequency=3 MHz, Sing-around technique in a fixed-path interferometer; for mass density: Vibrating tube method

CCCC[N+](CCCC)(CCCC)CCCC.[I-] [tetrabutylammonium iodide] + O
Settings | mass density, m1 = 0.01 [kg/m3] | mass density, m1 = 0.03 [kg/m3] | speed of sound, m1 = 0.01 [m/s] | speed of sound, m1 = 0.03 [m/s] | viscosity, m1 = 0.01 | viscosity, m1 = 0.03
288.15 K | 1001.07 ± 4 | 1002.22 ± 4 | 1468.9 ± 1.2 | 1473.6 ± 1.2 | 1.173 ± 0.015 mPa·s and 1.171 ± 0.015 mPa·s | 1.197 ± 0.015 mPa·s and 1.201 ± 0.015 mPa·s and 1.205 ± 0.015 mPa·s
293.15 K | 1000.16 ± 4 | 1001.29 ± 4 | 1484.9 ± 1.2 | 1489.1 ± 1.2 | 1.006 ± 0.013 mPa·s and 1.007 ± 0.013 mPa·s | 1.033 ± 0.014 mPa·s and 1.025 ± 0.013 mPa·s and 1.036 ± 0.014 mPa·s
298.15 K | 998.972 ± 4 | 1000.09 ± 4 | 1498.9 ± 1.2 | 1502.8 ± 1.2 | 0.861 ± 0.011 mPa·s and 0.862 ± 0.011 mPa·s | 0.883 ± 0.011 mPa·s and 0.882 ± 0.011 mPa·s and 0.884 ± 0.011 mPa·s
303.15 K | 997.53 ± 4 | 998.614 ± 4 | 1511.1 ± 1.2 | 1514.5 ± 1.2 | 0.818 ± 0.01 mPa·s and 0.817 ± 0.01 mPa·s | 0.83 ± 0.01 mPa·s and 0.828 ± 0.01 mPa·s and 0.831 ± 0.01 mPa·s
308.15 K | 995.952 ± 4 | 997.021 ± 4 | 1521.2 ± 1.2 | 1524.4 ± 1.2 | 0.731 ± 0.009 mPa·s and 0.732 ± 0.009 mPa·s | 0.739 ± 0.009 mPa·s and 0.744 ± 0.009 mPa·s

— the NIST ThermoML archive (doi:10.1021/acs.jced.5b00198)
